The record followed here is US9637476B2, “Atrasentan mandelate salts” (AbbVie Inc., priority 2013, dated 2017).

What all share (assay type): physicochemical
A short description of series [1]: Crystal morphology assessed by microscopy.
Series [2] is described as follows: Bulk density and tap density (USP <616>). To be noted: unmilled; USP <616> Method I, 100 mL cylinder. The method, then: Bulk and tap density are measured following United States Pharmacopeia and National Formulary guidelines (USP <616>). Approximately 60 mL of each sample is added into a 100 mL graduated cylinder. The powder is carefully leveled without compacting, and the volume is read directly from the cylinder and used to calculate the bulk density according to the relationship: mass/volume. The cylinder containing the powder sample is then mechanically tapped using a VanKel Tap Density Tester (Model 50-1200, Varian, Inc., Palo Alto, Calif.) until there is no change in volume. The volume of the sample is then read and used in the calculation of tap density.
Bulk density and tap density were measured for samples of the following materials: (i) unmilled atrasentan hydrochloride salt having the morphology and particle size distribution listed below in Table 10; and (ii) unmilled atrasentan mandelate salt having the morphology and particle size distribution listed below in Table 10. […] Bulk density was measured in accordance with Bulk Density, Method I of United States Pharmacopeia and National Formulary Guidelines (USP <616>) except that a 100 mL cylinder was filled with the sample for the testing. Tap density was measured in accordance with Tapped Density, Method I of United States Pharmacopeia and National Formulary guidelines (USP <616>) except that a 100 mL cylinder was filled with the sample for the testing.

The nature of series [3]: Morphology and particle size distribution of the unmilled samples. To be noted: for PARTICLE SIZE DISTRIBUTION D10 / PARTICLE SIZE DISTRIBUTION D50 / PARTICLE SIZE DISTRIBUTION D90: unmilled; for MORPHOLOGY: unmilled sample used for density measurement.
Series [4] can be described thus: Oxidative stability (urea-H2O2 co-crystal, HPLC). To be noted: for RECOVERED (%): solid exposed to urea-H2O2 co-crystal, 40° C., HPLC, individual samples 1-3; for RECOVERED (%) / AVERAGE (%) recovered / AVERAGE % (NORMALIZED): seven days; for AVERAGE (%) recovered / AVERAGE % (NORMALIZED): urea-H2O2, 40° C.; for AVERAGE (%) recovered: mean of samples 1-3; for AVERAGE % (NORMALIZED): sample average normalized to freezer blank average. The method, then:
About 1 mg of each solid was placed in a 4 mL glass vial and about 10 mg of urea-H2O2 co-crystal was placed in another 4 mL vial. The two vials then were connected by a connector (Kontes connector, 13-425X13-425, apt NO 747205-1313) and left in an oven at 40° C. for seven days. Blank samples were prepared by placing about 1 mg of each compound in a 4 mL vial and then storing the vial in a freezer at about −20° C. for the same period of time. The oven samples and freezer blanks were analyzed at the same time by HPLC. The measured data are reported in Table II-B below and the normalized data from Table II-B are shown in a bar chart in FIG. 3.

Series [5] in a line: Intrinsic dissolution rate as a function of pH. To be noted: for IDR (intrinsic dissolution rate): 37° C., 50 rpm, single runs. As for the experimental part:
About 100 mg of the sample tested was prepared by compressing the sample in a stainless steel die under 1100 pounds force with a dwell time of one minute to form a pellet. The die (diameter: 0.373 inch, area: 0.704 cm^2) containing the pellet was submerged in 250 mL of a phosphate buffer dissolution test medium having a pH of 2.0, 5.0, or 7.4. The medium was stirred by a paddle at 50 rpm and maintained at 37° C. To measure the concentration of the sample material in the medium, a fiber optic dip probe (μDiss Profile, pION Inc) was used to monitor the UV absorbance as a function of time. The measured data are reported in Table 12-A below and are shown graphically in FIG. 4.

A short description of series [6]: Intrinsic dissolution rate as a function of chloride ion concentration. Conditions: for IDR (intrinsic dissolution rate): pH 2.0 phosphate buffer, 37° C., 50 rpm; for linear regression intercept a of IDR = a + b × [Cl−] / linear regression slope b of IDR = a + b × [Cl−]: pH 2.0, [Cl−] 0 to 0.17 M. As for the experimental part:
About 100 mg of the sample tested was prepared by compressing the sample in a stainless steel die under 1100 pounds force with a dwell time of one minute to form a pellet. The die (diameter: 0.373 inch, area: 0.704 cm^2) containing the pellet was submerged in 250 mL of a phosphate buffer dissolution test medium having a pH of 2.0 and a chloride ion concentration of 0 M, 0.017 M, or 0.17 M. The medium was stirred by a paddle at 50 rpm and maintained at 37° C. To measure the concentration of the sample material in test medium, a fiber optic dip probe (μDiss Profile, pION
Inc) was used to monitor the UV absorbance as a function of time. The measured data are reported in Table 13-A below and are shown graphically in FIG. 5.
The intrinsic dissolution data reported in Table 13-A were further evaluated using linear regression analysis.

A short description of series [7]: Moisture sorption isotherm (DVS). Conditions: 25° C.; as the relative humidity decreased below 10%. The method, then:
A study was conducted to evaluate the moisture sorption isotherms of atrasentan hemi-sulfate salt (1:1 stoichiometry), monohydrate, and atrasentan S-mandelate salt (1:1 stoichiometry), anhydrate. A sample (about 5 mg to about 20 mg) of the powder to be tested was loaded onto the tared pan of a DVS Advantage dynamic gravimetric water sorption analyzer (Surface Measurement Systems Ltd, Alperton, United Kingdom). The moisture sorption isotherm for each sample was collected at 10% relative humidity intervals as the relative humidity was adjusted in the following manner: (a) 0% to 90% to 0% to 90% to 40% for the hemi-sulfate salt, and (b) 0% to 90% to 0% for the S-mandelate salt. For each step, the dm/dt criteria were 0.001% over 5 minutes with a minimum dm/dt time of 30 minutes and a maximum dm/dt of 120 minutes. Data was collected isothermally at 25° C. with a nitrogen flow rate of […]. The sample was maintained at 30% relative humidity and analyzed by PXRD. The moisture sorption isotherms generated for the hemi-sulfate and S-mandelate salt samples are shown in FIG. 6-A and FIG. 6-B, respectively.

Values joined by “and” are separate entries in the source; they are usually repeats but may differ in a detail not shown here. Identical values can stand only once. Counter-ions that a name gives are not always drawn. Like-named read-outs stand apart in the source and are kept apart here. Marks after values point to notes of the source that are not given here.

Consider `CCCCN(CCCC)C(=O)CN1CC(c2ccc3c(c2)OCO3)C(C(=O)O)C1c1ccc(OC)cc1.O=C(O)C(O)c1ccccc1` (stereo not drawn), for which the “CRYSTAL MORPHOLOGY” value in series [1] was “Prism”.
On to Mandelate, for which the “CRYSTAL MORPHOLOGY” value in series [1] is on record as “Prism”. In addition, in series [2], the “BULK DENSITY” value came to 0.25 g/mL and the “TAP DENSITY” value is listed as 0.40 g/mL. For the same molecule, in series [3], the “PARTICLE SIZE DISTRIBUTION D10” value was determined as 16 μm, the “PARTICLE SIZE DISTRIBUTION D50” value came out at 49 μm, the “PARTICLE SIZE DISTRIBUTION D90” value was determined as 141 μm and the MORPHOLOGY entry is on record as “Prismatic”. For the same molecule, the “oxidative stability compared with atrasentan parent and hydrochloride salt” value in series [4] (ANOVA of sample recovery proportion) is “greater oxidative stability”. Also, in series [4], the “RECOVERED (%)” value was 82.40% and 80.67% and 83.11%; the “AVERAGE (%) recovered” value was 79.58%; the “AVERAGE % (NORMALIZED)” value is given as 99.30%. Also, in series [5] (pH 5.0 phosphate buffer), the “IDR (intrinsic dissolution rate)” value was 2.1 × 10^−2 mg/min/cm^2 and 1.8 × 10^−2 mg/min/cm^2. Further, in series [5] (pH 7.4 phosphate buffer), the “IDR (intrinsic dissolution rate)” value is 1.1 × 10^−1 mg/min/cm^2 and 1.0 × 10^−1 mg/min/cm^2. For the same molecule, the “intrinsic dissolution rate compared with atrasentan parent” value in series [5] (paired t-test, pH 2.0, 5.0, 7.4) is reported as “statistically greater intrinsic dissolution rate”. Moreover, the “IDR (intrinsic dissolution rate)” value in series [6] ([Cl−] 0.0 M) was 1.0 × 10^−1 (n = 1) mg/min/cm^2. Further, the “IDR (intrinsic dissolution rate)” value in series [6] ([Cl−] 0.017 M) was 1.0 × 10^−1 (n = 1) mg/min/cm^2. Besides, the “IDR (intrinsic dissolution rate)” value in series [6] ([Cl−] 0.17 M) is on record as 8.3 × 10^−2 (n = 3)** mg/min/cm^2. In addition, the “sensitivity of intrinsic dissolution rate to chloride ion concentration compared with hydrochloride salt” value in series [6] (linear regression slopes) was “less sensitive to chloride ion concentration”. Further, in series [6], the “linear regression intercept a of IDR = a + b × [Cl−]” value is “a1 = 0.1035” and the “linear regression slope b of IDR = a + b × [Cl−]” value is listed as “b1 = −0.1222”.
In the case of `CCCCN(CCCC)C(=O)CN1C[C@H](c2ccc3c(c2)OCO3)[C@@H](C(=O)O)[C@@H]1c1ccc(OC)cc1.Cl`, in series [1], the “CRYSTAL MORPHOLOGY” value was “Needle”.
Turning to `CCCCN(CCCC)C(=O)CN1CC(c2ccc3c(c2)OCO3)C(C(=O)O)C1c1ccc(OC)cc1.CCCCN(CCCC)C(=O)CN1CC(c2ccc3c(c2)OCO3)C(C(=O)O)C1c1ccc(OC)cc1.O=C(O)C(O)c1ccccc1` (stereo not drawn) [S-Mandelate (2:1 Stoichiometry), Hydrate], the “CRYSTAL MORPHOLOGY” value in series [1] is listed as “Prism”.
The same measure, in the same setting: to `CCCCN(CCCC)C(=O)CN1CC(c2ccc3c(c2)OCO3)C(C(=O)O)C1c1ccc(OC)cc1.Cl` (stereo not drawn) belongs “Needle”.
For the molecule `CCCCN(CCCC)C(=O)CN1C[C@H](c2ccc3c(c2)OCO3)[C@@H](C(=O)O)[C@@H]1c1ccc(OC)cc1` [Hydrochloride], in series [1] (listed as Hydrochloride (1:1 Stoichiometry), Crystalline Form II), the “CRYSTAL MORPHOLOGY” value is on record as “Needle”. In series [2], the “BULK DENSITY” value is on record as 0.11 g/mL and the “TAP DENSITY” value worked out at 0.20 g/mL. In series [3], the “PARTICLE SIZE DISTRIBUTION D10” value was 6.0 μm, the “PARTICLE SIZE DISTRIBUTION D50” value turned out to be 20 μm, the “PARTICLE SIZE DISTRIBUTION D90” value is 86 μm and the MORPHOLOGY entry is on record as “Needle”. Moreover, in series [4], the “RECOVERED (%)” value is 87.62% and 87.21% and 83.11%; the “AVERAGE (%) recovered” value is on record as 85.98%; the “AVERAGE % (NORMALIZED)” value worked out at 89.48%. Also, in series [6] ([Cl−] 0.0 M), the “IDR (intrinsic dissolution rate)” value is 1.4 × 10^−1 (n = 1) mg/min/cm^2. The “IDR (intrinsic dissolution rate)” value in series [6] ([Cl−] 0.017 M) was 1.3 × 10^−1 (n = 1) mg/min/cm^2. In addition, the “IDR (intrinsic dissolution rate)” value in series [6] ([Cl−] 0.17 M) is given as 4.2 × 10^−2 (n = 1) mg/min/cm^2. In series [6], the “linear regression intercept a of IDR = a + b × [Cl−]” value is listed as “a2 = 0.1377” and the “linear regression slope b of IDR = a + b × [Cl−]” value is “b2 = −0.5609”.
Consider `CCCCN(CCCC)C(=O)CN1CC(c2ccc3c(c2)OCO3)C(C(=O)O)C1c1ccc(OC)cc1.O.O=S(=O)(O)O` (stereo not drawn), for which, in series [1], the “CRYSTAL MORPHOLOGY” value is recorded as “Needle”. The “solid form change during moisture sorption isotherm” value in series [7] is “partial conversion from the hydrate form to the anhydrate form”.
Regarding `CCCCN(CCCC)C(=O)CN1C[C@H](c2ccc3c(c2)OCO3)[C@@H](C(=O)O)[C@@H]1c1ccc(OC)cc1` [Parent, Quarter-hydrate, (2R,3R,4S)-4-(1,3-benzodioxol-5-yl)-1-[2-(dibutylamino)-2-oxoethyl]-2-(4-methoxyphenyl)pyaolidine-3-carboxylic acid], the “CRYSTAL MORPHOLOGY” value in series [1] was “Needle”.
On to `CCCCN(CCCC)C(=O)CN1C[C@H](c2ccc3c(c2)OCO3)[C@@H](C(=O)O)[C@@H]1c1ccc(OC)cc1` [Parent, (2R,3R,4S)-4-(1,3-benzodioxol-5-yl)-1-[2-(dibutylamino)-2-oxoethyl]-2-(4-methoxyphenyl)pyaolidine-3-carboxylic acid], for which, in series [1] (Hemi-hydrate), the “CRYSTAL MORPHOLOGY” value is “Prism”. In addition, in series [4], the “RECOVERED (%)” value is 93.76% and 91.62% and 89.37%; the “AVERAGE (%) recovered” value came to 91.58%; the “AVERAGE % (NORMALIZED)” value is given as 89.56%. For the same molecule, in series [5] (pH 2.0 phosphate buffer), the “IDR (intrinsic dissolution rate)” value is listed as 2.7 × 10^−2 (n = 1) mg/min/cm^2. The “IDR (intrinsic dissolution rate)” value in series [5] (pH 5.0 phosphate buffer) was 5.1 × 10^−3 mg/min/cm^2 and 5.4 × 10^−3 mg/min/cm^2. Also, the “IDR (intrinsic dissolution rate)” value in series [5] (pH 7.4 phosphate buffer) was 3.6 × 10^−2 (n = 1) mg/min/cm^2.
Take `CCCCN.CCCCN(CCCC)C(=O)CN1CC(c2ccc3c(c2)OCO3)C(C(=O)O)C1c1ccc(OC)cc1` (stereo not drawn): the “CRYSTAL MORPHOLOGY” value in series [1] is on record as “Bar”.
As for `CCCCN(CCCC)C(=O)CN1C[C@H](c2ccc3c(c2)OCO3)[C@@H](C(=O)O)[C@@H]1c1ccc(OC)cc1` [Parent, Anhydrate, (2R,3R,4S)-4-(1,3-benzodioxol-5-yl)-1-[2-(dibutylamino)-2-oxoethyl]-2-(4-methoxyphenyl)pyaolidine-3-carboxylic acid], the “CRYSTAL MORPHOLOGY” value in series [1] is given as “Needle”.
